Target: T1, JuvD-RhFRED (Micromonospora chalcea, UniProt A0A1Z1MZ59)
T1 sequence (A0A1Z1MZ59 1-402): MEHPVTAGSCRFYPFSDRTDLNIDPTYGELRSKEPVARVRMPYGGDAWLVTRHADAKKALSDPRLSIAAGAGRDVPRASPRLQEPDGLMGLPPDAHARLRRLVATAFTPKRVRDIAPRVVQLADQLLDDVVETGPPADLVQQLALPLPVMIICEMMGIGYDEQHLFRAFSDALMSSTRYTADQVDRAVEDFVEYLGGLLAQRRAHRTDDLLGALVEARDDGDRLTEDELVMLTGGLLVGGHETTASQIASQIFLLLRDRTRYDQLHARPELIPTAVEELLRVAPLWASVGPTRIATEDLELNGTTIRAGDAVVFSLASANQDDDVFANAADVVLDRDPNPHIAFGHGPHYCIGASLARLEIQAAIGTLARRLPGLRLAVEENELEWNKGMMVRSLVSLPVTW
Test: in vitro P450 oxidation
Type: biochemical
Settings: C12-C13 epoxidation; enzyme preparation not given

## CC[C@H]1OC(=O)C[C@@H](O)[C@H](C)[C@@H](O[C@@H]2O[C@H](C)C[C@H](N(C)C)[C@H]2O)[C@@H](CC=O)C[C@@H](C)C(=O)/C=C/C(C)=C/[C@@H]1C [compound 5, M-4365 G2]
  in vitro P450 oxidation: this enzyme effectively converted each substrate to a single product

From paper PMC5532807 (Journal of the American Chemical Society, 2017)
